Results published in BindingDB's records for PubMed 35202969 (Maharishi Markandeshwar (Deemed To Be University), 2022).

Target: CYP3A4 (Homo sapiens, UniProt P08684)
Experiment: Inhibition of CYP3A4 in human liver microsomes using midazolam as substrate
Details: probe midazolam

Chain of CYP3A4 (P08684 whole entry): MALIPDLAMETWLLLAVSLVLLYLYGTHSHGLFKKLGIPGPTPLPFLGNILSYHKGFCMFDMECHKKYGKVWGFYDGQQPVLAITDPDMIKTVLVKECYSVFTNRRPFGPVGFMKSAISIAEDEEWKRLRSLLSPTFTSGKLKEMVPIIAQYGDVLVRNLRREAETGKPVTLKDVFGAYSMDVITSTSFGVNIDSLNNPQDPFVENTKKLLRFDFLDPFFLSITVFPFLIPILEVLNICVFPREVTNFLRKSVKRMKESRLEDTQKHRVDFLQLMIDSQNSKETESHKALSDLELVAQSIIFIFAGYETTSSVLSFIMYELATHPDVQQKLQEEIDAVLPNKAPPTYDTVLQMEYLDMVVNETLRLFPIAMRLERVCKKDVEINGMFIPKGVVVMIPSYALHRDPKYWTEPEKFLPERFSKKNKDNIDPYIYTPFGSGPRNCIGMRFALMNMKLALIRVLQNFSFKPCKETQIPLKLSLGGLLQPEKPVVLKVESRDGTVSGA

SMILES: COc1c(N2CC[C@@H](C3(N)CC3)C2)ccc2c(=O)c(C(=O)O)cn([C@@H]3C[C@@H]3F)c12 [DX-619]
- Ki: 67.9 µM
